Assay results reported in patent publication US20160033480A1, “Immunovir and Components, Immunovir A, B, C, D Utility and Useful Processes” (priority 2013, published 2016).

Legend:
[1] = test system: HIV1; experiment: Anti-HIV1 activity in human venous blood mononuclear cells (HIV1P24 expression); assay type: cell-based; details: 21 days culture; FIG. 6
Description: Mononuclear cells derived from human venous blood (1×10^7 cells/0.80 mL) were suspended in capped Greiner incubation tube with R20C containing 40 ug/mL rIL-2, and 0.10 mL of immunovir (40 ug/mL or diluted with 4 fold) or, as a comparison, AZT (100, 10, or 1 ug/mL), then incubated in 5% CO2 incubator at 36-37° C. for 21 days.
Cells were precipitated by centrifugation (250 g, 5 minutes) every 3 days, and culture medium were replaced to fresh ones with identical ingredients. For antigen expression, cells were stained by mouse anti-HIV1P24 IgG1 and rabbit anti-mouse IgG1-FITC.
The percentage of cells with HIV1P24 gag gene expression, i.e., the ratio of fluorescent cells detected by indirect fluorescent antibody technique was calculated.

[2] = test system: mMφ/Mo; experiment: Effect on mice macrophages/mononuclear cells activities in vivo after CP immunosuppression; details: immunovirs 10 mg/kg or AZT 20 mg/kg via tail vein day 2 to 5; CP-treated mice; FIG. 5
Description: Two mice of each group were injected with 10 mg/kg.b.w of immunovir (O, mixture), immunovir A, B, C, D, or 20 mg/kg.b.w of AZT via tail vein in the afternoon from day 2 to day 5, respectively. Each mouse's abdominal cavity was injected with 0.5 mL of RTAC in the afternoon of day 5, and mMφ/Mo were collected from each mouse's abdominal cavity with 10 mL of R7 1⁄2C in the afternoon of day 6. Basal medium rich in deposit cells were taken, and 0.40 mL was pipetted into two wells of flat-bottomed 24-well Falcon culture dish. After incubation with 5% CO2 for 6 hours, 0.10 mL of cRBC (1%) was added into each well and incubation was carried out for 6 hours or overnight. Then suspended cells, i.e., cRBC, were sucked out, the well was gently washed with 0.5 mL of RPMI 1640, and 0.40 mL of RBMI 1640 and 5 ul of Liu Stain B solution were added again to stain mMφ, whereas cRBCs were unstainable. CP immuno suppression was removed by Immunovir(mix), Immunovir […]. but not AZT in mouse's body, and the efficacy of Mφ/Mo activity increased as shown in FIG. 5.

[3] = test system: guinea pig peritoneal derived adherent macrophages (gMφ); experiment: Effect on cellular immunity in vitro: gMφ killer cell activity against cRBC with or without cyclophosphamide; assay type: cell-based; details: second 20-hours incubation without CP; FIG. 4-1
Description: The effector (killer) cells for this experiment were adherent macrophages (gMφ) derived from guinea pig's peritoneal fluid cultured with RTAG (RPMI 1640 enriched with 7.5% v/v guinea pig serum). Cyclophosphamide (CP) was used as an immunosuppressive agent. Chicken red blood cells (cRBC) as target cells.
The experiment consisted of four series of experiments: gMφ+cRBC, gMφ+Imm+cRBC, gMφ+CP+cRBC, and gMφ+CP+Imm+cRBC, and immunovir (Imm) as immune response modifier.
A 200 to 250 g guinea pig was injected with 1 mL of thioglycolate medium, after 20 hours adherent macrophages derived from abdominal cavity (gMφ) were collected by aid of RPMI 1640, suspended in RTAG, then 0.9 mL of solution was pipetted into thirteen Falcon 12-well culture plates. The plates for group 1 and 2 to group 4 were 1 and 3, respectively. […] In other words, each well was filled with 1 ug/mL CP in group 2, 10 ug/mL in group 3, and 100 ug/mL in group 4. After incubation in a 5% CO2 incubator (35-37° C.), the medium in each well was replaced with fresh R7½G from group 1 (only 1 plate for control) to group 4. Then Imm was added from lane 1 to lane 4 (3 wells per lane) that the final concentration were 0, 0.1, 1, and 10 ug/mL, respectively. That was to say, from group 2 to group 4, lane 1 was a CP control, and lane 1 in plate 1 was gMφ control. […]

[4] = test system: Yac-1 cells; experiment: Mononuclear killer cell activity derived from mouse's spleen (51Cr release from Yac-1 cells); assay type: in vivo, BALB/c mice; details: CP 200 and 100 mg/kg day 1 and 2; immunovir 10 mg/kg every day; spleens day 7
Description: Twenty male BALB/c mice aged 8 weeks were divided into group A, B, C, and D. Mice in group A were injected with 0.20 mL of normal saline intravenously. […] Group C received immunovir 10 mg/kg.b.w every day. Group D received CP as group B and immunovir as Group C. All mice's spleens were excised at day 7 and spleen-derived mononuclear cells were isolated by Ficol-paque centrifugation.
Yac-1 cells (2×10^6/mL) were labeled with R20C containing 1 uc/mL of ^51Cr-chromate for 60 minutes at 37° C.
Mouse's spleen-derived mononuclear cells (killer cells) (3×10^6) and ^51Cr-chromate-labeled Yac-1 cells (6×10^6) were suspended altogether in 1.0 mL of R20C medium and incubated at 37° C. for 150 minutes, centrifuged with 250 g for 10 minutes, then 0.50 mL of supernatant was taken and dried in the bottle.
Radioactivity was measured by liquid scintillation and toluene-PPO-POPOP was used as a scintillant.

[5] = Bioactivity of separated immunovir components (test not specified)
[6] = test system: cRBC; experiment: Hemagglutination activity; assay type: cell-based, chicken; details: 0.4% v/v cRBC, room temperature, 2 hours
Description: Immunovir A, B, C, and D, or concanavalin A with different concentrations were added into 2 mL of normal saline 0.4% v/v cRBC suspension in Kahn tube. The solution was mixed thoroughly and kept at room temperature for 2 hours to observe hema-agglutination.

Cc1cn([C@H]2C[C@H](N=[N+]=[N-])[C@@H](CO)O2)c(=O)[nH]c1=O [AZT]
anti-HIV1 activities compared [1]: approximately the same | removal of CP immuno suppression in mouse's body (Mφ/Mo activity) [2]: not

O=P1(N(CCCl)CCCl)NCCCO1 (stereo not drawn) [CP, Cyclophosphamide]
activity of gMφ after removal of CP [3]: unrecoverable | radioactivity released (51Cr from Yac-1 cells) [4]: inhibited

CO[C@H]1O[C@H](CO)[C@@H](O)[C@H](O)[C@@H]1O [methyl-a-mannopyranoside]
bioactivity [5]: low bioactivity

concanavalin A
nature of hema-agglutination of cRBC (resuspension by shaking) [6]: firmly agglutinated with concanavalin A and could not be resuspended by shaking
